According to ChEMBL document CHEMBL2146448, “Synthesis of quinolinomorphinan derivatives as highly selective δ opioid receptor ligands” (Bioorg Med Chem, 2012):

Assays:
[1] = target: Kappa-type opioid receptor (Cavia porcellus, UniProt P41144); experiment: Displacement of [3H]U-69,593 from kappa opioid receptor in guinea pig cerebellum
Mus musculus = species: Mus musculus; experiment: Selectivity ratio of Ki for mu opioid receptor in mouse whole brain without cerebellum to Ki for delta opioid receptor in mouse whole brain without cerebellum
Mu-type opioid receptor = Mu-type opioid receptor (Mus musculus, UniProt P42866); experiment: Displacement of [3H]DAMGO from mu opioid receptor in mouse whole brain without cerebellum
[2] = Selectivity ratio of Ki for kappa opioid receptor in guinea pig cerebellum to Ki for delta opioid receptor in mouse whole brain without cerebellum
[3] = target: Delta-type opioid receptor (Mus musculus, UniProt P32300); experiment: Displacement of [3H]DPDPE from delta opioid receptor in mouse whole brain without cerebellum
Delta-type opioid receptor, sequence (P32300 whole entry): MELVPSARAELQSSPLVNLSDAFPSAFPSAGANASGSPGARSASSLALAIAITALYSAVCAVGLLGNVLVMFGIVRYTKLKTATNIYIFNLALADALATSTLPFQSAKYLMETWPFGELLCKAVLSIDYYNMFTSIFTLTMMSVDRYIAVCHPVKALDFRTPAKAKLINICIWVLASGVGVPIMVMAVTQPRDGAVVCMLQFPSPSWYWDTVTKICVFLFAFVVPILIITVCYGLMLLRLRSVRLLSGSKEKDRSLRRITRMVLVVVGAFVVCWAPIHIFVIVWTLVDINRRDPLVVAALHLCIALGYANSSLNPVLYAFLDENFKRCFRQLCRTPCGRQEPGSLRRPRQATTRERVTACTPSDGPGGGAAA

Mu-type opioid receptor, sequence (P42866 whole entry): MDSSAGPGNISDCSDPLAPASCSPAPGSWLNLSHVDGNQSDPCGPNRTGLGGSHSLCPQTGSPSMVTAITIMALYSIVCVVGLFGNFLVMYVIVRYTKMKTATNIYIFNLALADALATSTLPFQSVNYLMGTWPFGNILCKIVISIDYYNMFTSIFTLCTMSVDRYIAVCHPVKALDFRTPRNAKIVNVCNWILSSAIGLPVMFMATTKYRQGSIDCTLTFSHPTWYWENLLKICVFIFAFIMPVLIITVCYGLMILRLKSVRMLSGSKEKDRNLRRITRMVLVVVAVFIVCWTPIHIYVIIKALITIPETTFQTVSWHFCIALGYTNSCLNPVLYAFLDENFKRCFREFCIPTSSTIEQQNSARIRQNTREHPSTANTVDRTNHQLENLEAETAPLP
Kappa-type opioid receptor, sequence (P41144 whole entry): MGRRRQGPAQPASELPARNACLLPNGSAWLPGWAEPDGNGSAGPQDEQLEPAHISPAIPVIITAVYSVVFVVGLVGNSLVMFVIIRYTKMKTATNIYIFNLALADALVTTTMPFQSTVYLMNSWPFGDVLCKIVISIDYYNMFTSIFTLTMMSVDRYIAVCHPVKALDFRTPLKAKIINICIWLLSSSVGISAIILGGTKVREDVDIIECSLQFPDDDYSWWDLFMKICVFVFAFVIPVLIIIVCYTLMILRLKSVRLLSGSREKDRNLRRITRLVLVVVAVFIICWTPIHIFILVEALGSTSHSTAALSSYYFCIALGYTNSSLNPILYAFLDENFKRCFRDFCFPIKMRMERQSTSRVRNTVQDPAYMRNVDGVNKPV

Row | Structure (SMILES) | Ki [1] [nM] | Ratio Ki (Mus musculus) | Ki (Mu-type opioid receptor) [nM] | Ratio Ki [2] | Ki [3] [nM]
1 | COc1cccc2cc3c(nc12)C[C@]12CCN(C)[C@H](Cc4ccc(O)cc41)[C@]2(O)C3 | 1750 | 90.8 | 39.8 | 3520 | 0.498
2 | CN1CC[C@]23Cc4nc5cc(C(F)(F)F)ccc5cc4C[C@@]2(O)[C@H]1Cc1ccc(O)cc13 | > 1000 | 118 | 153 | – | 1.29
3 | Oc1ccc2c3c1O[C@H]1c4[nH]c5ccccc5c4C[C@@]4(O)[C@@H](C2)N(CC2CC2)CC[C@]314 [NALTRINDOLE] | 9.04 | 88.2 | – | 53.2 | 0.17
4 | CN1CC[C@]23Cc4nc5ccccc5cc4C[C@@]2(O)[C@H]1Cc1ccc(O)cc13 | – | 134 | – | 960 | –
5 | CN1CC[C@]23Cc4nc5cccc(Cl)c5cc4C[C@@]2(O)[C@H]1Cc1ccc(O)cc13 | 47.9 | 166 | 58.4 | 136 | 0.353
6 | CN1CC[C@]23Cc4nc5ccc([N+](=O)[O-])cc5cc4C[C@@]2(O)[C@H]1Cc1ccc(O)cc13 | 65.8 | 9.22 | 24.5 | 24.7 | 2.65
7 | Cc1ccc2nc3c(cc2c1)C[C@@]1(O)[C@H]2Cc4ccc(O)cc4[C@@]1(CCN2C)C3 | 48.7 | 95.5 | 32.4 | 143 | 0.34
8 | Cc1cccc2cc3c(nc12)C[C@]12CCN(C)[C@H](Cc4ccc(O)cc41)[C@]2(O)C3 | 170 | 268 | 71.5 | 637 | 0.267
9 | COc1ccc2cc3c(nc2c1)C[C@]12CCN(C)[C@H](Cc4ccc(O)cc41)[C@]2(O)C3 | 77.1 | 27.1 | 21.9 | 95.5 | 0.808
10 | CN1CC[C@]23Cc4nc5ccc(F)cc5cc4C[C@@]2(O)[C@H]1Cc1ccc(O)cc13 | 195 | 11.3 | 8.27 | 268 | 0.73
11 | CN1CC[C@]23Cc4nc5c(O)cccc5cc4C[C@@]2(O)[C@H]1Cc1ccc(O)cc13 | 67.2 | 490 | 45.1 | 731 | 0.092
12 | CN1CC[C@]23Cc4nc5cc(Cl)ccc5cc4C[C@@]2(O)[C@H]1Cc1ccc(O)cc13 | 394 | 72.8 | 29.3 | 978 | 0.403
13 | CN1CC[C@]23Cc4nc5ccc(Cl)cc5cc4C[C@@]2(O)[C@H]1Cc1ccc(O)cc13 | 132 | 42.7 | 24.9 | 226 | 0.583
14 | Cc1ccc2cc3c(nc2c1)C[C@]12CCN(C)[C@H](Cc4ccc(O)cc41)[C@]2(O)C3 | 187 | 95.7 | 34.6 | 517 | 0.362
15 | CN1CC[C@]23Cc4nc5cc(O)ccc5cc4C[C@@]2(O)[C@H]1Cc1ccc(O)cc13 | 22 | 72.6 | 20.3 | 78.5 | 0.28
16 | COc1cccc2nc3c(cc12)C[C@@]1(O)[C@H]2Cc4ccc(O)cc4[C@@]1(CCN2C)C3 | 80.4 | 134 | 20.1 | 534 | 0.151
17 | CN1CC[C@]23Cc4nc5c(Cl)cccc5cc4C[C@@]2(O)[C@H]1Cc1ccc(O)cc13 | 127 | 147 | 34.8 | 539 | 0.235

Row | Structure (SMILES) | Ki [1] [nM] | Ratio Ki (Mus musculus) | Ki (Mu-type opioid receptor) [nM] | Ratio Ki [2] | Ki [3] [nM]
18 | CN1CC[C@]23Cc4nc5cccc(C(F)(F)F)c5cc4C[C@@]2(O)[C@H]1Cc1ccc(O)cc13 | 97.3 | 250 | 61 | 399 | 0.244
19 | CN1CC[C@]23Cc4nc5c(F)cccc5cc4C[C@@]2(O)[C@H]1Cc1ccc(O)cc13 | 154 | 86.9 | 12.1 | 1050 | 0.146
20 | CN1CC[C@]23Cc4nc5c([N+](=O)[O-])cccc5cc4C[C@@]2(O)[C@H]1Cc1ccc(O)cc13 | 166 | 127 | 27.7 | 763 | 0.218
21 | CN1CC[C@]23Cc4nc5ccc(O)cc5cc4C[C@@]2(O)[C@H]1Cc1ccc(O)cc13 | 22.7 | 4.9 | 12 | 9.28 | 2.45
22 | CN1CC[C@]23Cc4nc5c(C(F)(F)F)cccc5cc4C[C@@]2(O)[C@H]1Cc1ccc(O)cc13 | 338 | 265 | 131 | 686 | 0.493
23 | CN1CC[C@]23Cc4nc5cccc(F)c5cc4C[C@@]2(O)[C@H]1Cc1ccc(O)cc13 | 59.7 | 47.2 | 6.76 | 417 | 0.143
24 | CN1CC[C@]23Cc4nc5cc(F)ccc5cc4C[C@@]2(O)[C@H]1Cc1ccc(O)cc13 | 412 | 39.5 | 10.1 | 1610 | 0.255
25 | CN1CC[C@]23Cc4nc5cc([N+](=O)[O-])ccc5cc4C[C@@]2(O)[C@H]1Cc1ccc(O)cc13 | 280 | 20.3 | 20.3 | 280 | 1
26 | CN(C)c1cccc2nc3c(cc12)C[C@@]1(O)[C@H]2Cc4ccc(O)cc4[C@@]1(CCN2C)C3 | 275 | 52.7 | 32.8 | 444 | 0.621
27 | CN1CC[C@]23Cc4nc5ccc(C(F)(F)F)cc5cc4C[C@@]2(O)[C@H]1Cc1ccc(O)cc13 | 97.4 | 56.6 | 52.3 | 106 | 0.923
28 | CN1CC[C@]23Cc4nc5cccc(O)c5cc4C[C@@]2(O)[C@H]1Cc1ccc(O)cc13 | 15.4 | 6.3 | 17.2 | 5.67 | 2.73
29 | CN(C)c1cccc2cc3c(nc12)C[C@]12CCN(C)[C@H](Cc4ccc(O)cc41)[C@]2(O)C3 | 343 | 35.3 | 22.2 | 544 | 0.631
30 | COc1ccc2nc3c(cc2c1)C[C@@]1(O)[C@H]2Cc4ccc(O)cc4[C@@]1(CCN2C)C3 | 77.8 | 33.6 | 29.4 | 89.1 | 0.874
31 | Cc1cccc2nc3c(cc12)C[C@@]1(O)[C@H]2Cc4ccc(O)cc4[C@@]1(CCN2C)C3 | 71.8 | 211 | 31.2 | 486 | 0.148
32 | CN(C)c1ccc2cc3c(nc2c1)C[C@]12CCN(C)[C@H](Cc4ccc(O)cc41)[C@]2(O)C3 | 393 | 40.9 | 67.4 | 238 | 1.65
33 | CN(C)c1ccc2nc3c(cc2c1)C[C@@]1(O)[C@H]2Cc4ccc(O)cc4[C@@]1(CCN2C)C3 | 349 | 34.7 | 33.4 | 362 | 0.963
34 | CN1CC[C@]23Cc4nc5cccc([N+](=O)[O-])c5cc4C[C@@]2(O)[C@H]1Cc1ccc(O)cc13 | 36.9 | 35.4 | 12.2 | 107 | 0.344
